Results on 1 compound are retold here after patent US9132136B2, “Pharmaceutical combination” (HOFFMANN-LA ROCHE INC., priority 2010, dated 2015).

Series [1] in a line: 14-day treatment in rats: body weight gain, fat mass (MR relaxometry), food intake.
The target in series [2] is T1, mouse TAAR1 (Mus musculus, UniProt Q923Y8).
T1 construct: expressed in transfected cells
In words: In vitro functional activity (cAMP assay) at mouse TAAR1 receptor in recombinant HEK293 cells. Format: cell-based. As for the experimental part:
In Vitro Functional Activity of TAAR1 Agonists at Mouse TAAR1 Receptor
Recombinant HEK293 cells expressing the mouse TAAR1 were grown at 37° C. and 5% CO2/95% air in 250 ml Falcon culture flasks in 30 ml culture medium. The cell culture medium contained DMEM high glucose, fetal calf serum (10%, heat inactivated for 30 min at 56° C.), geneticin G418 (500 μg/ml), and penicillin/streptomycin (1%). Cells were harvested when 80-90% confluent. Then culture medium was then removed from the culture flasks, cells washed once with 5 ml of PBS. After removing the wash solution, 5 ml of trypsin/EDTA solution were added for 5 min at 37° C. Afterwards, 45 ml of culture medium was added to the 5 ml detached cell solution and the total 50 ml transferred into a 50 ml Falcon tube (ref: 2070), the tube was centrifuged at 1300 rpm for 3 min at RT and the culture medium removed. The cell pellet was resuspended in fresh culture medium and brought to 5×10 E5 cells per milliliter. Then the cells were plated in 96-well Plate (BIOCOAT 6640 from Becton Dickinson) with a multipipette (100 μl/well, 50 000 cells/well) and incubated 20 h at 37° C.
The cell culture medium was removed and the cells washed once with PBS. 50 μl of PBS (AMIMED Endotoxine free: 8-05F00-1) with 1 mM IBMX were added and the cells allowed to incubate for 30 min at 37° C. and 5% CO2/95% air. Then 50 μl of a (e.g.) 20 μM compound solution or 50 μl of a 50% beta-PEA stimulation concentration in PBS (AMIMED Endotoxine free) with 1 mM IBMX were added and the cells incubated for 30 min at 37° C. as above again. After the incubation the cells were lysed with 50 μl of the 3× Detection Mix solution containing Ru-cAMP, Alexa700-cAMP Ab and lysis buffer for at least 60 min (better 2 h) at RT under strong shaking. The fluorescence is measured on the NanoScan (10M reader) (Ex. 456 nm, Em. 630 & 700 nm).
Efficacy values (% eff.) are relative to phenylethylamine having 100% agonistic activity.
(In general: Cyclic AMP is a second messenger, typically raised through Gs and lowered through Gi signalling.)

The subject of series [3] is cocaine-induced hyperlocomotor activity in mice. In words: Cocaine-induced locomotion test in mice. It is filed as in vivo.
Series [4] in a line: Oral glucose tolerance test (oGTT) in male C57Bl6 mice. It is filed as in vivo, male C57BL/6J mice. Conditions: 0.3 and 1 mg/kg p.o., vs vehicle. As for the experimental part:
An oral glucose tolerance test (oGTT) was performed in C57Bl6 mice to address potential anti-diabetic effects of TAAR1 agonists. Male C57BL/6J mice (Charles River Laboratories, Lyon, France) were stratified into groups of 8 mice according to body weight. The evening before the animals received 1 g food, this corresponds to a fasting period of about 10 hours. At the experiment day the animals were treated with TAAR1 agonists or placebo (0.3% Tween 80) 45 minutes prior to an oral glucose challenge of 2 g/kg. The main readout was blood glucose measured with Accu-Chek Aviva. In parallel blood samples were taken for insulin determination.

In series [5] the test system is L-687414-induced hyperlocomotion in mice. In words: L-687414-induced locomotion test in mice. It is filed as in vivo.
Setting [6] is: 14 days, 1 mg/kg p.o., vs vehicle.
Where [7] appears, read: 14 days, 3 and 10 mg/kg p.o., vs vehicle.

pEC50: −log10 of the molar value. “Also recorded” adds a separate entry of the source.

T1 sequence (Q923Y8 whole entry): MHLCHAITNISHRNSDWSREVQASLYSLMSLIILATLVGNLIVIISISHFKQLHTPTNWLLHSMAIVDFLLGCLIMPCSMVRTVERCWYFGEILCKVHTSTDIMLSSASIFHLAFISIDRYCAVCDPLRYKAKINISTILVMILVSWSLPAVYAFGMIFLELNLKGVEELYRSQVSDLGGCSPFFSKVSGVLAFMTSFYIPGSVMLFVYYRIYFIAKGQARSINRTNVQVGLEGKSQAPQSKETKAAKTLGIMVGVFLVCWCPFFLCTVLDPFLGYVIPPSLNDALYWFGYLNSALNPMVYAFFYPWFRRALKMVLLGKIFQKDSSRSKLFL

As a reminder, the pEC50 is −log10 of the EC50, conventionally taken in molar units. Turning to `Cc1c(F)cccc1[C@H]1COC(N)=N1` [Example S2, (S)-4-(3-fluoro-2-methyl-phenyl)-4,5-dihydro-oxazol-2-ylamine], the fat mass entry in series [1] (setting [6]) is on record as “No significant effect”; in series [1] (setting [7]), “reduced”. Besides, the food intake entry is recorded as “No significant effect” in series [1] (setting [6]); “significant reduction” in series [1] (14 days, 10 mg/kg); “reduced” in series [1] (setting [7]). The weight gain entry is “No significant effect and not” in series [1] (14 days, 1 mg/kg p.o., vs vehicle, 1 mg/kg); “reduced” in series [1] (setting [7]). For the same compound, the “weight loss compared to pre-treatment values” in series [1] (14 days, 3 and 10 mg/kg p.o.) is “without inducing weight loss”. Further, the “Cumulative food intake ± SEM” value in series [1] (Study 1, 3 mg/kg) worked out at 233.8 ± 7.4 g; in series [1] (Study 1, 10 mg/kg), 217.0 ± 7.3 g; in series [1] (Study 2, 1 mg/kg), 248.8 ± 5.0 g. Moreover, the Emax in series [2] (HEK293, relative to phenylethylamine having 100% agonistic activity, read-out: % efficacy) came out at 65%. Moreover, the negative-log EC50 (pEC50) in series [2] (HEK293 cells expressing mouse TAAR1, cAMP assay, read-out: EC50) is 8.74. Also, the cocaine-induced hyperlocomotor activity result in series [3] (1 and 3 mg/kg p.o.) is listed as “significantly antagonized”; in series [3] (tested alone, 0.3 mg/kg p.o., 0.3 mg/kg) it was “partially active; also recorded: partially antagonized”. For the same compound, the “effects on baseline locomotor activity” value in series [3] (doses that antagonized cocaine (1 and 3 mg/kg p.o.)) is given as “modest effects”. The “glucose AUC (0-60 min) during oGTT” value in series [4] is “markedly lowered”. Moreover, the “insulin AUC (0-60 min) during oGTT” value in series [4] is reported as “markedly lowered”. The L-687414-induced hyperlocomotion result in series [5] (acute, 0.00003-1 mg/kg p.o.) is on record as “dose-dependently antagonized; also recorded: fully antagonized”. In series [5] (alone, 0.001 mg/kg p.o.), the L-687414-induced locomotor activity result was “partially active”.
